{"source": "patent US9539256B2", "about": "(THE BOARD OF REGENTS OF THE UNIVERSITY OF TEXAS SYSTEM, priority 2012, dated 2017)", "key": {"[1]": {"test_system": "type I PKA holoenzyme", "assay": "PKA counter screening, type I holoenzyme", "format": "biochemical", "details": "25 μM compound", "protocol": "(§1) Kinase activity of the type I and II PKA holoenzyme are measured spectrophotometrically in a 96-well plate with a coupled enzyme assay as described previously (Cook et al. (1982) Biochemistry 21: 5794-5799). In this assay, the formation of ADP is coupled to the oxidation of NADH by the pyruvate kinase/lactate dehydrogenase reactions so the reaction rate can be determined by following the oxidation of NADH, reflected by a decrease in absorbance at 340 nm. […] Reactions are pre-equilibrated at room temperature and initiated by adding the Kemptide substrate (final concentration 0.26 mM)."}, "[2]": {"test_system": "type II PKA holoenzyme", "assay": "PKA counter screening, type II holoenzyme", "format": "biochemical", "details": "25 μM compound", "protocol": "as §1"}, "[3]": {"target": "T1, EPAC2 (Homo sapiens, UniProt Q8WZA2)", "T1 construct": "HEK293 cells that ectopically express full-length EPAC2 proteins; expressed in transfected cells; host or cells: HEK293", "T1 sequence (Q8WZA2 whole entry, species assumed)": "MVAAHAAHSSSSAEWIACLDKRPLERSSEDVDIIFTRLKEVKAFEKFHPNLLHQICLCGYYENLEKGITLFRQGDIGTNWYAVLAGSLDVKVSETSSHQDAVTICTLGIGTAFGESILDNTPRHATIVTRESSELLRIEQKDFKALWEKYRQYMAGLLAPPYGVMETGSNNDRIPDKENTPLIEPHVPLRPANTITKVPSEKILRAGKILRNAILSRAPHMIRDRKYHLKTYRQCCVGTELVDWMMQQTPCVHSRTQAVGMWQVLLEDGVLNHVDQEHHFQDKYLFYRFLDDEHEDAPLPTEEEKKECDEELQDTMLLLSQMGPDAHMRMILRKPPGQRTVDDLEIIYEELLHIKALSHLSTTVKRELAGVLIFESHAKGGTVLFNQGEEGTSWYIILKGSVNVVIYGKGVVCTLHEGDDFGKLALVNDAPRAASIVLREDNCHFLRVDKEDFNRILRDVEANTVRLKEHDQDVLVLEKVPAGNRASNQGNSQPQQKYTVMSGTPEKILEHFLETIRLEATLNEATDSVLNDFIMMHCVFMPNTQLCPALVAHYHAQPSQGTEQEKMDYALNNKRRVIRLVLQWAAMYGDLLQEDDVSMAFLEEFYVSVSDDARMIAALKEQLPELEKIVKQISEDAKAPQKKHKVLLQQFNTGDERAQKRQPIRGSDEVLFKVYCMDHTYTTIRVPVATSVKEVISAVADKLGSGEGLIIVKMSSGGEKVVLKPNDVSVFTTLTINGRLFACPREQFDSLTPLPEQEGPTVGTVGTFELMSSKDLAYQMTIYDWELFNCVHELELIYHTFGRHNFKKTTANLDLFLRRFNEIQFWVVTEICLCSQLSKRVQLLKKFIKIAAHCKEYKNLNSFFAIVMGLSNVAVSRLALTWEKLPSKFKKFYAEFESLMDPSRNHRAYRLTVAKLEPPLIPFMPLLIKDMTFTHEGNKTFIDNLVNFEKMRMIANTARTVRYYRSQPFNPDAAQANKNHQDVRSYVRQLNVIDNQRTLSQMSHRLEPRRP", "assay": "Phosphorylation of Akt in HEK293/EPAC2 cells", "format": "cell-based", "details": "10 μM for 5 min before 007-AM", "protocol": "FIG. 10. Effect of ESI-09 on EPAC-mediated PKB phosphorylation in HEK293/EPAC1, HEK293/EPAC2, and human vascular smooth muscle (hVSMC) cells. Serum-starved HEK293/EPAC1, HEK293/EPAC2, and hVSMC cells with or without pretreatment of […] ESI-09 were stimulated with 10 μM 007-AM. Cell lysates were subjected to Western blot analysis as described under “Experimental Procedures” using anti-phospho-Ser473-specific (PKB-P473) and anti-phospho-Thr308-specific (PKB-P308) PKB antibodies.\nCellular proteins from cell lysates treated with various reagents were separated by SDS-PAGE and transferred to polyvinylidene difluoride membrane. The levels of Akt activation were probed by immuno-blotting analyses using anti-phosphate T308 PKB antibodies (1:1000) and anti-phosphate S473 PKB antibodies (1:1000). At least three independent experiments were performed for each Western blot."}, "[4]": {"test_system": "AsPC-1, BxPC-3, and PANC-1", "assay": "Transwell migration/invasion assay", "format": "cell-based", "details": "pretreated with 10.0 μM for 24 hours; AsPC-1, BxPC-3, PANC-1", "protocol": "The top chamber of 8 micron inserts (Costar Inc) were coated with BD Matrigel™ Basement Membrane Matrix ([…]). Cells (2×10^5) pretreated with 10.0 μM of ESI-09 for 24 hours were added to the top chamber of the inserts in serum free RPMI medium containing 0.25% BSA. The bottom chamber was filled with 600.0 μL of RPMI containing 10% FBS and 10.0 μM ESI-09. The cells were then incubated at 37° C. in 5% CO2 for 20 hours. Cells were removed from the top chamber and migrated cells were fixed in methanol and stained with crystal violet. The number of migrated cells were counted from four different fields."}, "[5]": {"test_system": "OVA-specific IgG1 antibodies", "assay": "Oral ovalbumin immunization, serum OVA-IgG1", "format": "in vivo", "details": "WT mice, oral gavage 50 mg/kg, versus vehicle"}, "[6]": {"test_system": "Plasma leptin", "assay": "Plasma leptin of wild-type mice after 3 weeks treatment", "format": "in vivo", "details": "50 mg/kg oral gavage for 3 weeks; relative to vehicle", "protocol": "FIGS. 17A-17B. Pharmacological inhibition of EPAC reduces plasma leptin and enhances leptin signaling in hypothalamus (A) Western blotting of pSTAT3 Y705, total STAT3, SOCS3, SHP2 and α-tubulin in organotypic brain slices at hypothalamus level treated with leptin with or without EPAC specific inhibitor. (B) Plasma leptin levels of 8-week-old wild-type mice treated 3 weeks with vehicle or ESI-09 (50 mg/kg).\nTo explore the feasibility of increasing leptin sensitivity by targeting Epac1 using small molecules, organotypic brain slice cultures were prepared from 11-day old wild-type C57BL/6 mice. After 7 days ex vivo culture, treatment of the brain tissue with the Epac specific antagonist ESI-09 led to an enhanced pSTAT3 Y705 level both at the basal state and in response to leptin stimulation. […] These pharmacological data are in agreement with results obtained using Epac1 KO mice and further confirm that inhibition of Epac1 enhances leptin signaling in the hypothalamus. To further investigate the therapeutic potential of this small molecule, wild-type mice were with ESI-09 (50 mg/kg) or vehicle (corn oil) by oral gavage for 3 weeks."}, "[7]": {"target": "T2, EPAC2 (Mus musculus, UniProt Q9EQZ6)", "T2 sequence (Q9EQZ6 1-1011)": "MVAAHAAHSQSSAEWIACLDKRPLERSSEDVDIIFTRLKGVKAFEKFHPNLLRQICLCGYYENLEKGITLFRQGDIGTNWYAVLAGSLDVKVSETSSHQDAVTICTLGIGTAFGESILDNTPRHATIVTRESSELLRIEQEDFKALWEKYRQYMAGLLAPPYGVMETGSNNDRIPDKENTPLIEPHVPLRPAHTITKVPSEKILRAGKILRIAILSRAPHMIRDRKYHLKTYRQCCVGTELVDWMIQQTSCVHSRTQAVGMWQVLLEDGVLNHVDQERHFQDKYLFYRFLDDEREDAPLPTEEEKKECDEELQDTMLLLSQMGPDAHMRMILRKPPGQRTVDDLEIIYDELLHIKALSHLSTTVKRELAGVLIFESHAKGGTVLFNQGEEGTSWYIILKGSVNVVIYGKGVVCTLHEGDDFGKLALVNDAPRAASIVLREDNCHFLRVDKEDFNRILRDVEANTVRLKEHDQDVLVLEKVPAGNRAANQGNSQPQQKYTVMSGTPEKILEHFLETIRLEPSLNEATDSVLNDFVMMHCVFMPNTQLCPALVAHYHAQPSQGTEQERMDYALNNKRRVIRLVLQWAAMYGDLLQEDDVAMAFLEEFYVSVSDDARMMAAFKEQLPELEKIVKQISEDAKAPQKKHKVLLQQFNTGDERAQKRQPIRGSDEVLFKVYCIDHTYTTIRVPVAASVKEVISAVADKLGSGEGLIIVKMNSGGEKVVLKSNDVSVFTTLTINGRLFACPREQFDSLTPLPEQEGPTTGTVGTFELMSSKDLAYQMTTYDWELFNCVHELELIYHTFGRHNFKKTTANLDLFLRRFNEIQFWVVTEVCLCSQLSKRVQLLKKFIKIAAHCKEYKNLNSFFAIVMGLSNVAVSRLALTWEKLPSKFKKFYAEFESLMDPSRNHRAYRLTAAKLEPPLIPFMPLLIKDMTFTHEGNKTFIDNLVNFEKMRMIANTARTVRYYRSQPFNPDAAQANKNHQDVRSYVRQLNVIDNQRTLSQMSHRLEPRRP", "assay": "Rap1-GDP exchange (GEF) activity assay, EPAC2", "quoted_text": "Exchange of Mant-GDP by GDP was measured as a decrease in fluorescence intensity over time using a FluoroMax-3 spectrofluorometer with excitation/emission wavelengths set at 366/450 nm. Typically, decay in the fluorescence intensity was recorded over a time course of 6000 s with data points taken every 60 s."}}, "note": "“Also recorded” adds a separate entry of the source."}
{"smiles": "CC(C)(C)c1cc(C(=O)C(C#N)=NNc2cccc(Cl)c2)no1", "note": "[ESI-09, 3-(5-Tert-Butyl-Isoxazol-3-Yl)-2-[(3-Chlorophenyl)-Hydrazono]-3-Oxo-Propionitrile]", "values": [{"measurement": "cAMP-induced type I PKA holoenzyme activation", "setting": "[1]", "result": "did not significantly alter"}, {"measurement": "cAMP-induced type II PKA holoenzyme activation", "setting": "[2]", "result": "did not significantly alter"}, {"measurement": "EPAC2-mediated Akt phosphorylation (T308 and S473)", "setting": "[3]", "result": "completely blocked"}, {"measurement": "cell migration, trans-well migration/invasion", "setting": "[4]", "result": "significant decrease; also recorded: significantly (P<0.05) decreased"}, {"measurement": "serum OVA-specific IgG1 antibodies", "setting": "[5]", "result": "significantly higher; also recorded: increases"}, {"measurement": "Plasma leptin", "setting": "[6]", "result": "significantly reduced"}, {"measurement": "IC50", "setting": "[7]", "result": "1400 ± 100", "unit": "nM"}]}
